# Assay results as given in PubChem BioAssay AID1963833 (Molecular Pharmacology Branch, DTP, NCI, 2024).
# pIC50: −log10 of the molar value.
# Test system: 883617-216-R-J1-PDC complex spheroid viability
# Assay: Anticancer human tumor 883617-216-R-J1-PDC patient-derived bladder carcinoma cell line growth inhibition [POLQ]
# Details: for pIC50: curve of first compound; for viability, T/C: stronger effect = lower value
# Outline: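 Patient-derived tumour cells were co-cultured with HUVEC and mesenchymal stem cells as multicellular spheroids at 37 °C. They were treated with POLQ inhibitors (novobiocin, ART-558, RP6685) alone or combined with other agents. Top concentrations were at or near clinical Cmax (otherwise 10 microM; SN-38 at 1 microM), decreasing in half-log steps.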
# [1] = second compound 0.0316 µM, first compound 0.0316 µM
# [2] = second compound 0.0316 µM, first compound 0.1 µM
# [3] = second compound 0.0316 µM, first compound 0.316 µM
# [4] = second compound 0.0316 µM, first compound 1 µM
# [5] = second compound 0.0316 µM, first compound 3.16 µM
# [6] = second compound 0.0316 µM, first compound 10 µM
# [7] = second compound 0.1 µM, first compound 0.0316 µM
# [8] = second compound 0.1 µM, first compound 0.1 µM
# [9] = second compound 0.1 µM, first compound 0.316 µM
# [10] = second compound 0.1 µM, first compound 1 µM
# [11] = second compound 0.1 µM, first compound 3.16 µM
# [12] = second compound 0.1 µM, first compound 10 µM
# [13] = second compound 0.316 µM, first compound 0.0316 µM
# [14] = second compound 0.316 µM, first compound 0.1 µM
# [15] = second compound 0.316 µM, first compound 0.316 µM
# [16] = second compound 0.316 µM, first compound 1 µM
# [17] = second compound 0.316 µM, first compound 3.16 µM
# [18] = second compound 0.316 µM, first compound 10 µM
# [19] = second compound 1 µM, first compound 0.0316 µM
# [20] = second compound 1 µM, first compound 0.1 µM
# [21] = second compound 1 µM, first compound 0.316 µM
# [22] = second compound 1 µM, first compound 1 µM
# [23] = second compound 1 µM, first compound 3.16 µM
# [24] = second compound 1 µM, first compound 10 µM
# [25] = second compound 3.16 µM, first compound 0.0316 µM
# [26] = second compound 3.16 µM, first compound 0.1 µM
# [27] = second compound 3.16 µM, first compound 0.316 µM
# [28] = second compound 3.16 µM, first compound 1 µM
# [29] = second compound 3.16 µM, first compound 3.16 µM
# [30] = second compound 3.16 µM, first compound 10 µM
# [31] = second compound 10 µM, first compound 0.0316 µM
# [32] = second compound 10 µM, first compound 0.1 µM
# [33] = second compound 10 µM, first compound 0.316 µM
# [34] = second compound 10 µM, first compound 1 µM
# [35] = second compound 10 µM, first compound 3.16 µM
# [36] = second compound 10 µM, first compound 10 µM
# 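Note: spheroids exposed to compounds for seven days before readout.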
# 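Throughout, for viability, T/C: 100% = DMSO vehicle control viability.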
smiles,measurement,setting,value
Nc1ccn(C2OC(CO)C(O)C2(F)F)c(=O)n1 (stereo not drawn) + Nc1ccc(C#CCN(C(=O)Cc2ncc(C(F)(F)F)cc2C(F)(F)F)c2ccc(F)cc2)nn1,pIC50,second compound 0.0316 µM,> 7.50
same,pIC50,second compound 0.1 µM,> 7.50
same,pIC50,second compound 0.316 µM,> 7.50
same,pIC50,second compound 1 µM,> 7.50
same,pIC50,second compound 3.16 µM,> 7.50
same,pIC50,second compound 10 µM,> 7.50
same,"viability, T/C",[1],33.7%
same,"viability, T/C",[2],33.4%
same,"viability, T/C",[3],39.8%
same,"viability, T/C",[4],33.9%
same,"viability, T/C",[5],56%
same,"viability, T/C",[6],37.3%
same,"viability, T/C",[7],34.5%
same,"viability, T/C",[8],35.1%
same,"viability, T/C",[9],38.2%
same,"viability, T/C",[10],32.4%
same,"viability, T/C",[11],37.5%
same,"viability, T/C",[12],47.1%
same,"viability, T/C",[13],32.5%
same,"viability, T/C",[14],38.7%
same,"viability, T/C",[15],39.3%
same,"viability, T/C",[16],35.9%
same,"viability, T/C",[17],35.1%
same,"viability, T/C",[18],34.3%
same,"viability, T/C",[19],43.1%
same,"viability, T/C",[20],39.9%
same,"viability, T/C",[21],45.2%
same,"viability, T/C",[22],39.8%
same,"viability, T/C",[23],43.3%
same,"viability, T/C",[24],37.6%
same,"viability, T/C",[25],44.7%
same,"viability, T/C",[26],34.4%
same,"viability, T/C",[27],35.4%
same,"viability, T/C",[28],60.7%
same,"viability, T/C",[29],46.2%
same,"viability, T/C",[30],35.6%
same,"viability, T/C",[31],62.4%
same,"viability, T/C",[32],28.1%
same,"viability, T/C",[33],34.5%
same,"viability, T/C",[34],47.7%
same,"viability, T/C",[35],50.4%
same,"viability, T/C",[36],37.6%
C=CCn1c(=O)c2cnc(Nc3ccc(N4CCN(C)CC4)cc3)nc2n1-c1cccc(C(C)(C)O)n1 + Nc1ccc(C#CCN(C(=O)Cc2ncc(C(F)(F)F)cc2C(F)(F)F)c2ccc(F)cc2)nn1,pIC50,second compound 0.0316 µM,< 6.00
same,pIC50,second compound 0.1 µM,< 6.00
same,pIC50,second compound 0.316 µM,< 6.00
same,pIC50,second compound 1 µM,6.01
same,pIC50,second compound 3.16 µM,< 6.00
same,pIC50,second compound 10 µM,6.03
same,"viability, T/C","second compound 0.0316 µM, first compound 0.00316 µM",102%
same,"viability, T/C","second compound 0.0316 µM, first compound 0.01 µM",98.9%
same,"viability, T/C",[1],84.3%
same,"viability, T/C",[2],113%
same,"viability, T/C",[3],96.4%
same,"viability, T/C",[4],59.8%
same,"viability, T/C","second compound 0.1 µM, first compound 0.00316 µM",100%
same,"viability, T/C","second compound 0.1 µM, first compound 0.01 µM",95.6%
same,"viability, T/C",[7],95.8%
same,"viability, T/C",[8],94.1%
same,"viability, T/C",[9],88.3%
same,"viability, T/C",[10],86.8%
same,"viability, T/C","second compound 0.316 µM, first compound 0.00316 µM",102%
same,"viability, T/C","second compound 0.316 µM, first compound 0.01 µM",115%
same,"viability, T/C",[13],106%
same,"viability, T/C",[14],108%
same,"viability, T/C",[15],92.4%
same,"viability, T/C",[16],63.6%
same,"viability, T/C","second compound 1 µM, first compound 0.00316 µM",101%
same,"viability, T/C","second compound 1 µM, first compound 0.01 µM",96.5%
same,"viability, T/C",[19],81.1%
same,"viability, T/C",[20],101%
same,"viability, T/C",[21],103%
same,"viability, T/C",[22],49%
same,"viability, T/C","second compound 3.16 µM, first compound 0.00316 µM",115%
same,"viability, T/C","second compound 3.16 µM, first compound 0.01 µM",109%
same,"viability, T/C",[25],85.7%
same,"viability, T/C",[26],99.3%
same,"viability, T/C",[27],115%
same,"viability, T/C",[28],58.4%
same,"viability, T/C","second compound 10 µM, first compound 0.00316 µM",126%
same,"viability, T/C","second compound 10 µM, first compound 0.01 µM",101%
same,"viability, T/C",[31],108%
same,"viability, T/C",[32],116%
same,"viability, T/C",[33],128%
same,"viability, T/C",[34],45.1%
CC(C)n1c(=O)n(C)c2cnc3cc(F)c(-c4ccc(OCCCN5CCCCC5)nc4)cc3c21 + Nc1ccc(C#CCN(C(=O)Cc2ncc(C(F)(F)F)cc2C(F)(F)F)c2ccc(F)cc2)nn1,pIC50,second compound 0.0316 µM,< 5.00
same,pIC50,second compound 0.1 µM,< 5.00
same,pIC50,second compound 0.316 µM,< 5.00
same,pIC50,second compound 1 µM,< 5.00
same,pIC50,second compound 3.16 µM,< 5.00
same,pIC50,second compound 10 µM,< 5.00
same,"viability, T/C",[1],95.3%
same,"viability, T/C",[2],94.5%
same,"viability, T/C",[3],96%
same,"viability, T/C",[4],108%
same,"viability, T/C",[5],82.6%
same,"viability, T/C",[6],75.6%
same,"viability, T/C",[7],95.7%
same,"viability, T/C",[8],114%
same,"viability, T/C",[9],87.6%
same,"viability, T/C",[10],100%
same,"viability, T/C",[11],95%
same,"viability, T/C",[12],69.8%
same,"viability, T/C",[13],112%
same,"viability, T/C",[14],89.5%
same,"viability, T/C",[15],98.9%
same,"viability, T/C",[16],119%
same,"viability, T/C",[17],80.8%
same,"viability, T/C",[18],73.8%
same,"viability, T/C",[19],108%
same,"viability, T/C",[20],104%
same,"viability, T/C",[21],113%
same,"viability, T/C",[22],104%
same,"viability, T/C",[23],92.2%
same,"viability, T/C",[24],72.7%
same,"viability, T/C",[25],101%
same,"viability, T/C",[26],95.7%
same,"viability, T/C",[27],104%
same,"viability, T/C",[28],98%
same,"viability, T/C",[29],98.3%
same,"viability, T/C",[30],76.4%
same,"viability, T/C",[31],117%
same,"viability, T/C",[32],121%
same,"viability, T/C",[33],120%
same,"viability, T/C",[34],103%
same,"viability, T/C",[35],109%
same,"viability, T/C",[36],81.8%
O=C(c1cc(Cc2n[nH]c(=O)c3ccccc23)ccc1F)N1CCN(C(=O)C2CC2)CC1 + Cc1cccc(N(C)C(=O)C2C(O)CCN2c2nc(C)cc(C(F)(F)F)c2C#N)c1,pIC50,second compound 0.0316 µM,< 5.00
same,pIC50,second compound 0.1 µM,< 5.00
same,pIC50,second compound 0.316 µM,< 5.00
same,pIC50,second compound 1 µM,< 5.00
same,pIC50,second compound 3.16 µM,< 5.00
same,pIC50,second compound 10 µM,< 5.00
same,"viability, T/C",[1],111%
same,"viability, T/C",[2],89.4%
same,"viability, T/C",[3],82.2%
same,"viability, T/C",[4],94.9%
same,"viability, T/C",[5],79.3%
same,"viability, T/C",[6],64.6%
same,"viability, T/C",[7],111%
same,"viability, T/C",[8],94%
same,"viability, T/C",[9],91%
same,"viability, T/C",[10],90.2%
same,"viability, T/C",[11],80.3%
same,"viability, T/C",[12],66.7%
same,"viability, T/C",[13],112%
same,"viability, T/C",[14],90.3%
same,"viability, T/C",[15],89.8%
same,"viability, T/C",[16],93.1%
same,"viability, T/C",[17],82.6%
same,"viability, T/C",[18],70.4%
same,"viability, T/C",[19],98.7%
same,"viability, T/C",[20],94.1%
same,"viability, T/C",[21],90.9%
same,"viability, T/C",[22],90.5%
same,"viability, T/C",[23],92%
same,"viability, T/C",[24],66.4%
same,"viability, T/C",[25],93.3%
same,"viability, T/C",[26],94.6%
same,"viability, T/C",[27],90.5%
same,"viability, T/C",[28],78.3%
same,"viability, T/C",[29],87.3%
same,"viability, T/C",[30],71.6%
same,"viability, T/C",[31],114%
same,"viability, T/C",[32],107%
same,"viability, T/C",[33],120%
same,"viability, T/C",[34],99.9%
same,"viability, T/C",[35],95%
same,"viability, T/C",[36],77.5%
